Marks after values point to notes of the source that are not given here.
Experiments:
[1] = tested on: MRSA 01, MRSA 15, MRSA 16; test: Mutational frequency evaluation, Example 3; type: cell-based, Staphylococcus aureus; conditions: for Frequency of spontaneous mutations conferring resistance: strain MRSA 01, average of 10 replicates; for mutation frequency at MIC×1: no colony grew
Experimental: Strains were conserved in Luria Bertani (LB) Broth supplemented with glycerol 15% (v/v) at −80° C., and reactivated by isolation on LB agar plates. Strains were cultivated aerobically in Mueller Hinton (MH) Broth-cation adjusted at 37° C.
The frequency of spontaneous single-step mutations was determined on the 3 different strains as described by Drago et al. (2005) and Pannu et al. (2011). […] Adequate dilutions were plated on plates without the compound.
(§1) Viable cell growth was enumerated after 48 hours of incubation at 37° C.
The spontaneous resistance frequency for an isolate-drug combination was calculated from the number of colonies that grew on plates containing drug versus the number of colonies that grew on drug-free agar.
(§2) Ten replicates were carried out for each strain and fusidic acid, mupirocin and retapamulin were used as controls for the MRSA 01 strain.

[2] = tested on: MRSA 01, MRSA 15, MRSA 16; test: Mutational frequency evaluation, Example 1; type: cell-based, Staphylococcus aureus; conditions: for Resistance mutation rate at MIC × 1: tested against one strain: MRSA 01
Experimental: Adequate dilutions were plated on plates without the compound.
as §1, §2

| Structure (SMILES) | mutational frequency at MIC×1 ([1]; MRSA 01) | mutational frequency at MIC×10 ([1]; MRSA 01) | Frequency of spontaneous mutations conferring resistance ([1]; concentration MIC × 1) | Frequency of spontaneous mutations conferring resistance ([1]; concentration MIC × 2) | Frequency of spontaneous mutations conferring resistance ([1]; concentration MIC × 4) | Frequency of spontaneous mutations conferring resistance ([1]; concentration MIC × 10) | Resistance mutation rate at MIC × 1 [2] | mutation frequency at MIC×1 ([1]; MRSA 15) | mutation frequency at MIC×1 ([1]; MRSA 16) | mutational frequency at MIC×1 ([1]; all tested strains (MRSA 01, MRSA 15, MRSA 16), below the detection limit) | mutational frequency at MIC×1 ([2]; text summary of Table 4) |
| --- | --- | --- | --- | --- | --- | --- | --- | --- | --- | --- | --- |
| CC(=O)O[C@H]1C[C@@]2(C)[C@@H](C[C@@H](O)[C@H]3[C@@]4(C)CC[C@@H](O)[C@@H](C)[C@@H]4CC[C@@]32C)/C1=C(\CCC=C(C)C)C(=O)O [Fusidic acid] | ≥ 4.10^−5 | 3.10^−7 | ≥4.10^−5 | 2.10^−5 | 1.10^−6 | 3.10^−7 | ≥4 × 10^−5* |  |  |  |  |
| C/C(=C\C(=O)OCCCCCCCCC(=O)O)C[C@@H]1OC[C@H](C[C@@H]2O[C@H]2[C@@H](C)[C@H](C)O)[C@@H](O)[C@H]1O [Mupirocin] |  |  | ≥4.10^−5 | 8.10^−8 | 1.10^−8 | ≤4.10^−9 | ≥4 × 10^−5* |  |  |  |  |
| O=C(Nc1ccc([N+](=O)[O-])cc1Cl)c1cc(Cl)ccc1O [Niclosamide, 5-chloro-N-(2-chloro-4-nitrophenyl)-2-hydroxybenz-amide] |  |  | <4 × 10^−9* | <4 × 10^−9* | <4 × 10^−9* | <4 × 10^−9* |  | < 3×10^−8 | < 1×10^−7 | < 4.10^−9 | < 4×10^−10 |
| C=C[C@]1(C)C[C@@H](OC(=O)CS[C@@H]2C[C@H]3CC[C@@H](C2)N3C)[C@]2(C)[C@H](C)CC[C@]3(CCC(=O)[C@H]32)[C@@H](C)[C@@H]1O [Retapamulin] |  |  | ≥4.10^−5 | 3.10^−7 | 2.10^−8 | <4.10^−9* | ≥4 × 10^−5* |  |  |  |  |

Reference: patent US11331327B2, “Antibacterial use of halogenated salicylanilides” (UNION therapeutics A/S, priority 2014, dated 2022)
